The target of test [1] is T1, human neutrophil elastase (HNE) (Homo sapiens, UniProt P08246).
T1 construct: purchased Sigma or EMDbiosciences
T1 sequence (P08246 30-267): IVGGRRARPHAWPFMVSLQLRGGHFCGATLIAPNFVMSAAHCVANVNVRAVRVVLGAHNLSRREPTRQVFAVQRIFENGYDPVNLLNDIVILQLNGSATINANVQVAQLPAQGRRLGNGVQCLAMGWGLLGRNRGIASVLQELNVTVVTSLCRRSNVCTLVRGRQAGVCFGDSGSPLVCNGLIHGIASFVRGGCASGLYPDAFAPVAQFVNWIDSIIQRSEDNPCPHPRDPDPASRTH
The experiment in a line: Specificity assay, human neutrophil elastase. It is filed as biochemical. To be noted: read-out: HLE activity in the specificity assays (IC50). The protocol:
The specificities of compounds of the present disclosure were determined against a variety of serine proteases: human neutrophil elastase (HNE), porcine pancreatic elastase (PPE) and human pancreatic chymotrypsin and one cysteine protease: human liver cathepsin B. In all cases, a 96-well plate format protocol using colorimetric p-nitroaniline (pNA) substrate or fluorometric Amino-Methyl-Coumarin (AMC) substrate, specific for each enzyme was used as described previously (PCT Patent Application No. WO 00/09543) with some modifications. All enzymes were purchased from Sigma or EMDbiosciences while the substrates were from Bachem.
Each pNA assay included a 2 hours enzyme-inhibitor pre-incubation at room temperature followed by addition of substrate and hydrolysis to ˜15% conversion as measured on a Spectramax Pro microplate reader. The cathepsin B assay was initiated by adding substrate to a 10 min enzyme-inhibitor pre-incubation at room temperature, and the assay plate measured immediately using the Cytofluor Series 4000. Compound concentrations varied from 100 to 0.4 μM depending on their potency. […]
The percentage of inhibition was calculated using the formula: [1−((UVinh−UVblank)/(UVctl−UVblank))]×100 […]

For test [2], the system named is HCV replicon in HUH-7 cells. Briefly: HCV replicon FRET assay. It is filed as cell-based, Hepatitis C virus (strain 1b). To be noted: Hepatitis C virus. Summed up: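 HUH-7 cells carrying a genotype 1b subgenomic neo replicon (NS3–NS5B) treated 4 days at 37 °C with compound in 0.5% DMSO final. CC50 from alamarBlue fluorescence after 4 h; cells then lysed with FRET protease substrate at 10 μM final and read kinetically at 340/490 nm to give EC50.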
For orientation: In antiviral work, replicon cells carry a viral genome segment that copies itself.

Read-outs that look alike come from different tables or passages of the source.

The term IC50 denotes the point on the concentration scale where inhibition reaches its midpoint. As a reminder, the EC50 is the midpoint of the concentration-response curve. `C=C[C@@H]1C[C@]1(NC(=O)[C@@H]1C[C@@H](OC(=O)N2Cc3cccc(F)c3C2)CN1C(=O)[C@@H](OC(=O)NC(C)(C)C)C(C)(C)C)C(=O)NS(=O)(=O)C1CC1` [Example 56Compound 56]: the IC50 in test [1] is above 100 µM. Besides, the EC50 is 0.742 µM in test [2] (Huh-7, 96 h, replicon FRET assay, HUH-7, 4 days, read-out: EC50 value in the replicon FRET assay) and 0.5 to 5 µM in test [2] (Huh-7, read-out: EC50 Range, HCV replicon cell assay, Table 1).

These data come from patent US7323447B2, “Hepatitis C virus inhibitors” (Bristol-Myers Squibb Company, priority 2005, dated 2008).
